# Data taken from patent US4711890A, “Pharmaceutical compositions containing azanaphthalene-carboxamide derivatives, azanaphthalene-carboxamide derivatives and process for their use” (Rhone-Poulenc Sante, priority 1982, dated 1987).
# Columns and labels:
# [1] = target: cerebral receptor sites for benzodiazepines; assay: Affinity for the cerebral-type receptor sites for benzodiazepines: displacement of 3H-diazepam on rat brain membranes; assay type: binding; settings: 3H-diazepam displacement
# Procedure: The affinity of the compounds of formula (I) for the cerebral receptor sites for benzodiazepines was determined, by the method of MOHLER et al, Life Sciences, 1977, 20, 2101, on rat brain membranes.
# [2] = target: T1, peripheral-type receptor sites for benzodiazepines (Rattus norvegicus, UniProt P16257); assay: Affinity for the peripheral-type receptor sites for benzodiazepines: displacement of 3H-diazepam on rat kidney membranes; assay type: binding; settings: for Ki: rat kidney membranes, 3H-diazepam displacement
# T1 construct: on rat kidney membranes; from tissue; host or cells: rat kidney membranes
# Procedure: The affinity of the compounds of formula (I) for the peripheral-type receptor sites was determined, using the procedure of BRAESTRUP et al., Proc. Natl. Acad. Sci. U.S.A., 1977, 74, 3805, on rat kidney membranes.
# [3] = system: binding sites for [^3 H] diazepam in the kidneys; settings: kidneys / peripheral level, [3H] diazepam sites; cited from earlier work
# [4] = system: binding sites for [^3 H] diazepam in the brain; settings: [3H] diazepam sites; cited from earlier work
# [5] = GHAZAL et al., Egypt. Pharm. Bull., 1960, 42, 465; cited from earlier work
Compound,Ki [1] [nM],Ki [2] [nM],further results
"O=C1CCN(C(=O)c2nc(-c3ccccc3)nc3ccccc23)CC1 [Example 53, 1-[(2-phenylquinazolin-4-yl)-carbonyl]-piperidin-4-one]",270,–,–
"CCN(CC)C(=O)c1nc(-c2ccccc2Cl)nc2ccccc12 [Example 22, N,N-diethyl-2-(2-chlorophenyl)-quinazoline-4-carboxamide]",–,270,–
"O=C(c1nc(-c2ccccc2)nc2ccccc12)N1CCCC1 [Example 26, 1-[(2-phenylquinazolin-4-yl)-carbonyl]-pyrrolidine]",90,–,–
"O=C(c1cc(-c2ccccc2Cl)nc2ccccc12)N1CCCCC1 [Example 18, 1-[2-(2-chlorophenyl)-quinolin-4-yl]-carbonylpiperidine]",–,360,–
"CCC(C)N(C(=O)c1cc(-c2ccccc2Cl)nc2ccccc12)C(C)CC (stereo not drawn) [Example 16, N,N-di-(1-methylpropyl)-2-(2-chlorophenyl)-quinoline-4-carboxamide]",–,72,–
"CCC(C)N(C)C(=O)c1cc(-c2ccccc2)nc2ccccc12 (stereo not drawn) [Example 43, N-methyl-N-(1-methylpropyl)-2-phenylquinoline-4-carboxamide]",–,100,–
"CN1C(=O)CN=C(c2ccc(Cl)cc2)c2cc(Cl)ccc21 [Ro-5-4864, 7-chloro-5-(p-chlorophenyl)-1,3-dihydro-1-methyl-2H-1,4-benzodiazepin-2-one]",–,–,"affinity / activity at kidney (peripheral) binding sites, in words [3]: very active; affinity / activity at brain (central) binding sites, in words [4]: inactive"
"O=C(c1cc(-c2ccccc2)nc2ccccc12)N1CCCC1 [Example 11, 1-(2-phenylquinolin-4-yl)-carbonylpyrrolidine]",130,–,–
"CCN(CC)C(=O)c1cc(-c2ccccc2)nc2ccccc12 [Example 1, N,N-diethyl-2-phenylquinoline-4-carboxamide]",50,–,pharmacological properties described in the literature [5]: uricosuric and anti-pyretic properties
"CCC(C)N(C)C(=O)c1cc(-c2ccccc2Cl)nc2ccccc12 (stereo not drawn) [Example 15, N-methyl-N-(1-methylpropyl)-2-(2-chlorophenyl)-quinoline-4-carboxamide]",–,31,–
"CCN(CC)C(=O)c1cc(-c2ccc(Cl)c(Cl)c2)nc2ccccc12 [Example 37, N,N-diethyl-2-(3,4-dichlorophenyl)-quinoline-4-carboxamide]",–,117,–
"CCN(CC)C(=O)c1cc(-c2ccc(C)cc2)nc2ccccc12 [Example 24, N,N-diethyl-2-(4-methylphenyl)-quinoline-4-carboxamide]",330,–,–
"O=C(c1cc(-c2ccccc2)nc2ccccc12)N1CCCCC1 [Example 4, 1-(2-phenylquinolin-4-yl)-carbonylpiperidine]",40,–,–
"CCN(CC)C(=O)c1cc(-c2ccccc2F)nc2ccccc12 [Example 38, N,N-diethyl-2-(2-fluorophenyl)-quinoline-4-carboxamide]",310,–,–
O=C1CN=C(c2ccccc2Cl)c2cc([N+](=O)[O-])ccc2N1 [clonazepam],–,–,"affinity / activity at kidney (peripheral) binding sites, in words [3]: virtually inactive; affinity / activity at brain (central) binding sites, in words [4]: very strong affinity"
"CC1CCCC(C)N1C(=O)c1cc(-c2ccccc2Cl)nc2ccccc12 (stereo not drawn) [Example 39, 1-{[2-(2-chlorophenyl)-quinolin-4-yl]-carbonyl}-2,6-dimethylpiperidine]",–,54,–
"O=C(c1cc(-c2ccccc2)nc2ccccc12)N1CCOCC1 [Example 5, 4-(2-phenylquinolin-4-yl)-carbonylmorpholine]",90,–,–
"CCC(C)N(CC)C(=O)c1cc(-c2ccccc2Cl)nc2ccccc12 (stereo not drawn) [Example 17, N-ethyl-N-(1-methylpropyl)-2-(2-chlorophenyl)-quinoline-4-carboxamide]",–,9,–
"CCN(CC)C(=O)c1nc(-c2ccccc2)nc2ccccc12 [Example 25, N,N-diethyl-2-phenylquinazoline-4-carboxamide]",390,–,–
"O=C(c1cc(-c2ccccn2)nc2ccccc12)N1CCCCC1 [Example 3, 1-[2-(pyridin-2-yl)-quinolin-4-yl]-carbonylpiperidine]",160,–,–
"CCN(CC)C(=O)c1cc(-c2ccccc2)cc2ccccc12 [Example 20, N,N-diethyl-3-phenylnaphthalene-1-carboxamide]",–,2,preferential action on peripheral receptors (versus cerebral) ([2]; peripheral versus cerebral benzodiazepine receptors): act preferentially on peripheral receptors
"O=C(c1nc(-c2ccccc2)nc2ccccc12)N1CCCCC1 [Example 27, 1-[(2-phenylquinazolin-4-yl)-carbonyl]-piperidine]",70,–,–
"CCN(CC)C(=O)c1cc(-c2ccc(F)cc2)nc2ccccc12 [Example 10, N,N-diethyl-2-(4-fluorophenyl)-quinoline-4-carboxamide]",210,160,–
"CNC1=Nc2ccc(Cl)cc2C(c2ccccc2)=[N+]([O-])C1 [Chlorodiazepoxide, reference compound]",80,–,–
"CCC(C)N(C)C(=O)c1nc(-c2ccccc2)cc2ccccc12 (stereo not drawn) [Example 51, N-methyl-N-(1-methylpropyl)-3-phenylisoquinoline-1-carboxamide]",–,45,–
"CCC(C)N(C)C(=O)c1cc(-c2ccccc2)cc2ccccc12 (stereo not drawn) [Example 21, N-methyl-N-(1-methylpropyl)-3-phenylnaphthalene-1-carboxamide]",–,58,–
"CCN(CCC1CCNCC1)C(=O)c1cc(-c2ccccc2)nc2ccccc12 [Example 49, N-ethyl-N-[2-(piperidin-4-yl)-ethyl]-2-phenylquinoline-4-carboxamide]",400,–,–
"CCN(CC)C(=O)c1cc(-c2ccccc2Cl)nc2ccccc12 [Example 8, N,N-diethyl-2-(2-chlorophenyl)-quinoline-4-carboxamide]",–,117,–
